In US11026943B2, “Aminoquinoline derivatives and uses thereof” (UNIVERSITY OF DELHI, priority 2012, dated 2021):
Several values for one entry are separate records, joined by “and”; a condition that tells them apart may be missing. Equal values may be shown once.

Legend:
[1] = tested on: CQ-resistant (W2 clone) strain of P. falciparum; test: In vitro antimalarial activity, CQ-resistant strain; format: cell-based, Plasmodium falciparum; details: for IC50: Plasmodium falciparum, CQ-resistant W2 clone, read-out: P. falciparum (W2 Clone) IC50; for P. falciparum (W2 Clone) S.I.: selectivity index = IC50 cytotoxicity to Vero cells / IC50 antimalarial
Description: (§1) Med. Chem. 2005, 13, 4458; Khan, I. A. Lipids 2004, 37, 169].

LLC-PK-1 cells = test: In vitro cytotoxicity to mammalian cells, LLC-PK-1; format: cell-based; details: Sus scrofa, LLC-PK1
Description: as §1

[2] = tested on: CQ-sensitive (D6 clone) strain of P. falciparum; test: In vitro antimalarial activity, CQ-sensitive strain; format: cell-based, Plasmodium falciparum; details: for IC50: Plasmodium falciparum, CQ-sensitive D6 clone, read-out: P. falciparum (D6 Clone) IC50; for selectivity index of antimalarial activity: ratio of IC50 for cytotoxicity to Vero cells and IC50 for antimalarial activity; for P. falciparum (D6 Clone) S.I.: selectivity index = IC50 cytotoxicity to Vero cells / IC50 antimalarial; for activity fold higher than artemisinin: CQ-sensitive strain
Description: as §1

VERO cells = test: In vitro cytotoxicity to mammalian cells, VERO; format: cell-based; details: for IC50: Chlorocebus sabaeus, Vero, in vitro cytotoxicity to mammalian cells; for toxicity to cell lines: all the three cell lines (VERO, LLC-PK-1, and HepG2)
Description: as §1

HepG2 cells = test: In vitro cytotoxicity to mammalian cells, HepG2; format: cell-based; details: Homo sapiens
Description: as §1

[3] = tested on: primary cultures of rat mesencephalic DA neurons; test: 6-OHDA-induced death in primary mesencephalic DA neurons (TH+ count, [3H]DA uptake); format: cell-based; details: number of TH+ neurons and DA uptake; 20 μM 6-OHDA for 24 hr
Experimental: Control DA neurons were treated with the above medium in the presence of a dopamine uptake blocker, 10 μM mazindol (Sigma). Cells were then washed with ice-cold Krebs Ringers solution and lysed with 0.5 M NaOH. Radioactivity was quantified by a liquid scintillation counter (Beckman, Fullerton, Calif.).
To prepare primary cultures of DA neurons, the ventral mesencephalon was removed from 14 day gestation Sprague Dawley rat embryo (Charles River, Cambridge, Mass.). Tissues were incubated with 0.01% trypsin in MEM (MEM, Invitrogen) for 10 min at 37° C. and triturated using a constricted Pasteur pipette. DA neurons were plated at 1.0×10^5 cells per 9 mm diameter glass cover slip precoated with 100 μg/ml poly-D-lysine (Sigma, St. Louis, Mo.) and 4 μg/ml laminin (Invitrogen). DA neurons were maintained at 37° C. in a humidified 5% CO2 atmosphere in minimum essential medium supplemented with 10% FBS (Hyclone), 2 mM glutamine and 6.0 g/l glucose. […]
Cells were fixed in 4% paraformaldehyde (PFA) for 20 min, washed and then incubated with blocking buffer [PBS, 10% goat serum (Invitrogen), 0.3% Triton X-100 (Sigma)] for 1 hour. […] Following washes with PBS, appropriate fluorescence-tagged secondary antibodies (Jackson Immunoresearch Laboratories, West Grove, Pa.) were used for visualization. […]

[4] = tested on: LBDs of Nur77, GR, LXR, RXR, PPARα, PPARγ; test: Target selectivity: GAL4-LBD reporter assays of other nuclear receptors; format: cell-based; details: FIG. 19; 30 μM AQ
Experimental: The positive reactivity of these NR constructs was confirmed by the known activators (2 nM dexamethasone, 20 nM retinoic acid, 2 μM GW3965, 50 nM GW7647, and 5 nM GW1929 for GR, RXR, LXR, PPARα, and PPARγ, respectively). The basal level of transcriptional activity was normalized to 1. Bars represent means±SEM from three independent experiments.
(§4) Human neuroblastoma SK-N-BE(2)C cells were maintained in Dulbecco's modified Eagle's medium (DMEM) supplemented with 10% fetal bovine serum. All culture media contained 100 units/ml penicillin and 100 μg/ml streptomycin. For transfection, cells were plated at 1.5×10^5 cells/well in the DMEM media without antibiotic into 24-well plates 1 day prior to transfection. Transfections were carried out by the Lipofectamine plus (Invitrogen) according to the manufacture's protocol. Total DNA amount was 0.5 μg per well with 0.1 μg of pRSV-β-gal as an internal control. 6 hours after transfection, compounds in the DMEM media with 1% charcoal-stripped fetal calf serum was added and incubated overnight. […] Then equal volume of firefly luciferase substrate was added and the luciferase activity was measured using a Luminometer plate reader and normalized for beta-galactosidase activity.

Nurr1 LBD [5] = biological target: T1, Nurr1 LBD (Mus musculus, UniProt Q06219); test: Filter binding assay with [3H]-CQ (saturation and competition)
Description: The basal level of transcriptional activity was normalized to 1. The bars represent means±SEM from three independent experiments. (FIG. 13C) Effect of Nurr1 specific siRNA on Nurr1 LBD's transactivation activity. […] (FIG. 13D) Human neuroblastoma SK-N-BE(2)C cells were transfected with the N-terminal flag-tagged SRC1 or SRC3 and the C-terminal myc-tagged full-length Nurr1. […] Cell lysates were immunoprecipitated (IP) using anti-flag antibodies and analyzed by immunoblotting (IB) using anti-myc antibodies. […] The fold induction was derived by comparing each luciferase activity to basal level obtained by non-SRC transfection. […] The concentrations (04) are shown next to the arrows. […] Specific binding was calculated as the difference of total and non-specific binding. The insert indicates Scatchard analysis of the specific binding. […] The data represent the average of triplicate from three independent experiments. All graphs, Kd, Ki, and Bmax values were generated using the non-linear regression program Prism version 5.02.
GF/C filters were wet with in binding buffer and placed on a 48-place filter manifold. […] Filters were washed with 4×100 ml binding buffer, dried, and mixed with 5 ml Scintiverse BD (Fisher) and radioactivity was determined in a Beckman LS6000SC liquid scintillation counter. […] The mixture was applied to GF/C filter and filter was washed and counted as described above.

Nurr1 LBD [6] = biological target: T1, Nurr1 LBD; test: Nurr1 LBD GAL4 reporter assay (pSVGAL(DBD)-N(LBD), p8xGAL-Luc) in SK-N-BE(2)C cells; format: cell-based
Description: (§2) The pTH2600LUC reporter construct contains the 2.6 kb upstream sequences of the rat tyrosine hydroxylase gene in front of a firefly luciferase gene in pGL3-basic vector. A Nurr1-expression plasmid, pSV40Nurr1, was kindly provided by Dr Orla M. Conneely at Baylor College of Medicine (Houston, Tex., USA). […] The VP16/SRC1 and VP16/SRC3 hybrid were constructed by inserting the transactivation domain of the VP16 protein upstream of SRC1 and SRC3, respectively. […] The recombinant proteins were purified by Ni-NTA column chromatography (Qiagen) according to the manufacturer's instruction. The integrity of all sequences was verified by DNA sequence analyses.
(§3) Human neuroblastoma SK-N-BE(2)C cells were maintained in Dulbecco's modified Eagle's medium (DMEM) supplemented with 10% fetal bovine serum. All culture media contained 100 units/ml penicillin and 100 μg/ml streptomycin. For transfection, cells were plated at 1.5×10^5 cells/well in the DMEM media without antibiotic into 24-well plates 1 day prior to transfection. Transfections were carried out by the Lipofectamine plus (Invitrogen) according to the manufacture's protocol. Total DNA amount was 0.5 μg per well with 0.1 μg of pRSV-β-gal as an internal control. 6 hours after transfection, compounds in the DMEM media with 1% charcoal-stripped fetal calf serum was added and incubated overnight. Cells from each well were lysed with 100 μl of lysis buffer, which contains 25 mM Tris-phosphate (pH 7.8), 2 mM DTT, 2 mM CDTA (1,2-diaminocyclohexane-N,N,N′,N′-tetraacetic acid), 10% glycerol, and 1% Triton X-100. Then equal volume of firefly luciferase substrate was added and the luciferase activity was measured using a Luminometer plate reader and normalized for beta-galactosidase activity.

PC12 cells = test: 6-OHDA toxicity in PC12 cells (MTT reduction assay); format: cell-based, rat
Experimental: Cell viabilities were determined by the conventional MTT reduction assay. After incubation for indicated times, cells were treated with the MTT solution (final concentration, 1 mg/ml, Sigma) for 1 h. Formazan grains formed in intact cells were solubilized with MTT Solubilization. Solution containing 10% Triton X-100 plus 0.1 N HCl in anhydrous isopropanol for 24 h and then absorbance at 570 nm was measured with a microplate reader (Molecular Devices, Menlo Park, Calif.).

MPTP-treated monkeys = details: previous study; cited from earlier work
[7] = tested on: Nurr1 recruitment to TH promoter NL1 and NL3; test: Chromatin immunoprecipitation in PC12 cells; format: cell-based, rat; details: 20 μM AQ or 75 μM CQ for 15 hrs
Experimental: Error bars represent standard deviations.
Cells were washed with PBS, fixed with 1% formaldehyde, lysed, and sonicated according to the manufacturer's instruction (Active Motif). 25 μg of soluble chromatin DNA were co-immunoprecipitated 1 μg of Nurr1 specific antibody (E-20, Santa Cruz) or control antibody (rabbit IgG, santa Cruz). […] Values are shown as fold induction compared to mock treated control cells.

aphakia (ak/ak) mice = test: Behavioral studies in ak/ak mice (Pole, Challenging Beam, Cylinder, Rotarod) and SN histology; format: in vivo, mouse; details: L-DOPA 8 mg/kg i.p. once per day
Experimental: Either 20 mg/kg of AQ (AQ group) or the saline (Saline group) was intraperitoneally injected (I.P.) twice per day for two weeks. 8 mg/kg of L-DOPA (L-DOPA group) in 0.5% DMSO was injected (I.P.) once per day for two weeks. The L-DOPA group was given 12.5 mg/kg benserazide 20 min prior to administration of L-DOPA.
Each ak mouse was randomly assigned into one of three experiment groups, (1) saline group (negative control; n=8), (2) L-DOPA group (positive control; n=8), (3) AQ group (n=10). Each WT or rdl mouse was randomly divided into two groups, (1) saline group (n=8) and (2) AQ group (n=10). Pole Test, Challenging Beam Traversal Test, and Cylinder Test were performed at two time points, immediately and one month after two weeks of either AQ or saline injection. Each mouse ran each task twice. Rota rod test was performed immediately after two weeks of either drug or saline injection. Acclimation and data recording process were identical to the rat study described above. All tasks were performed as described previously^11 and the short description of each task is as follows.
A vertical wooden pole 50 cm in length and 1 cm in diameter was used for Pole Test. Each mouse was gently placed head upwards on top of the pole which is placed on each animal's home cage. Each mouse ran tree trials per session during 2 training sessions. On the testing day, mice ran three trials. Two parameters (the meantime to orient downward and the total travel mean time) were used for the statistical analysis.
A 1 m length of plastic beam was used for Challenging Beam Traversal Test. The starting width of the beam was 3.5 cm and it gradually narrowed in 1 c increments to 0.5 cm at the other end site of the beam. Animals were trained to walk from the wide end to the other end for 2 sessions, three trials per session before testing. A mesh grid was removed during the training period. On the testing day, a mesh grid (1 cm square) covering the beam surface was equipped leaving a […] room between the grid and the beam surface. On the testing day, mice ran three trials. Two parameters (the mean number of steps taken by each animal and the mean time to traverse across three trials) were collected and used for statistical analysis.
A small transparent cylinder (height, 15.5 cm; diameter, 12.7 cm) was used to evaluate somatosensory motor function. Mice were placed in the cylinder and their rears were counted for 5 minutes. The forelimb touching the Plexiglas wall (a vertical movement) is defined as a full rear. The mean number of forelimb use was calculated for the statistical analysis. […]
The Rota rod equipment (Med-Associates, Inc, Albans, Vt., USA) was used to measure motor coordination. […] The mean latency to fall off from the Rota rod was measured for the statistical analysis. […]

Nurr1 = biological target: T2, Nurr1 (Mus musculus, UniProt Q06219); test: High-throughput cell-based screen of Nurr1-dependent TH promoter activation; details: library of 960 FDA-approved drugs
T2 construct: Full-length mouse Nurr1cDNA was amplified by RT-PCR from pSV40Nurr1; expressed in transfected cells; host or cells: SK-N-BE(2)C human neuroblastoma cells
Description: The pTH2600LUC reporter construct contains the 2.6 kb upstream sequences of the rat tyrosine hydroxylase gene in front of a firefly luciferase gene in pGL3-basic vector. A Nurr1-expression plasmid, pSV40Nurr1, was kindly provided by Dr Orla M. Conneely at Baylor College of Medicine (Houston, Tex., USA). Full-length mouse Nurr1cDNA was amplified by RT-PCR from pSV40Nurr1 using forward 5′-[sequence]-3′ (SEQ ID NO: 1) and reverse 5′-[sequence]-3′ (SEQ ID NO: 2) oligonucleotides.
as §4

full-length Nurr1 = biological target: T3, full-length Nurr1 (Mus musculus, UniProt Q06219); test: Full-length Nurr1 reporter assay (p4xNL3-Luc) in SK-N-BE(2)C cells; format: cell-based; details: dose-dependent, maximal
T3 construct: Full-length mouse Nurr1cDNA was amplified by RT-PCR from pSV40Nurr1; expressed in transfected cells; host or cells: SK-N-BE(2)C human neuroblastoma cells
Description: as §2
as §3, with “6 hours after transfection, compounds in the DMEM media with 1% charcoal-stripped fetal calf serum was added and incubated overnight. Cells from each well were lysed with 100 μl of lysis buffer, which contains 25 mM Tris-phosphate (pH 7.8), 2 mM DTT, 2 mM CDTA (1,2-diaminocyclohexane-N,N,N′,N′-tetraacetic acid), 10% glycerol, and 1% Triton X-100.” left out

T1 sequence (Q06219 328-598): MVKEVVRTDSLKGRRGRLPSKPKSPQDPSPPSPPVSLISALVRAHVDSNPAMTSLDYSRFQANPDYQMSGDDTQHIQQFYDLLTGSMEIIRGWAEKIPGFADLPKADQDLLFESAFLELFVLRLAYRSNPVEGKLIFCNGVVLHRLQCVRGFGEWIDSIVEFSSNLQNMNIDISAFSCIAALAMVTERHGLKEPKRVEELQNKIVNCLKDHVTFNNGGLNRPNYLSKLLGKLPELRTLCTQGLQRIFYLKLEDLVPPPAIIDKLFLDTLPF
T3 sequence (Q06219 whole entry): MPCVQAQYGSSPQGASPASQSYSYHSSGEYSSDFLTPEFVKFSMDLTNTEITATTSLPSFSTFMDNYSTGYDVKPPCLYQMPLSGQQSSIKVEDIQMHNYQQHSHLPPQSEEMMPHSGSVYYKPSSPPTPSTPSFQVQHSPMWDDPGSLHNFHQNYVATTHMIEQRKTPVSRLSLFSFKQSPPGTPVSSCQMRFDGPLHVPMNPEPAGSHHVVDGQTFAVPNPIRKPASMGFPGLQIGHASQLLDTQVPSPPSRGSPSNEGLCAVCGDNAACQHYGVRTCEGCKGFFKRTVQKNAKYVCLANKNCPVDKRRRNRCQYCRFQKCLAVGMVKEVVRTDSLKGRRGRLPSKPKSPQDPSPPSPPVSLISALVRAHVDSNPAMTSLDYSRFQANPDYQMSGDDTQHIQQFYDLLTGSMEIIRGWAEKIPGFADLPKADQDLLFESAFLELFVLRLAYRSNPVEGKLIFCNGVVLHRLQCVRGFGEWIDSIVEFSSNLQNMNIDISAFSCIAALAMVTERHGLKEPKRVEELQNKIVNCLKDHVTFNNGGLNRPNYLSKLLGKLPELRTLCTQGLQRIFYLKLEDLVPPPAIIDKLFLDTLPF
T2 sequence (Q06219 whole entry): as above

| Compound | IC50 [1] [nM] | P. falciparum (W2 Clone) S.I. [1] | IC50 (LLC-PK-1 cells) [µM] | IC50 [2] [nM] | P. falciparum (D6 Clone) S.I. [2] | IC50 (VERO cells) [µM] | IC50 (HepG2 cells) [µM] | melting point [°C] | further results |
| --- | --- | --- | --- | --- | --- | --- | --- | --- | --- |
| Cc1cc(NCCCCCCNc2ccnc3cc(Cl)ccc23)nc(N2CCOCC2)n1 [12h, N-(7-Chloro-quinolin-4-yl)-N′-(6-methyl-2-morpholin-4-yl-pyrimidin-4-yl)-hexane-1,6-diamine] | 120 | 142.5 | 9.8 | 41 | 417.0 | 17.1 | < 6.7 | 107 to 109 | selectivity index of antimalarial activity [2]: considerably high; toxicity to cell lines (VERO cells): showed toxicity |
| Cc1cc(NCCCNc2ccnc3cc(Cl)ccc23)nc(N2CCN(C)CC2)n1 [12j, N-(7-Chloro-quinolin-4-yl)-N′-[6-methyl-2-(4-methyl-piperazin-1-yl)-pyrimidin-4-yl]-propane-1,3-diamine] | 63 | (>952) | 35.2 | 7 | (>8571) | > 60 | 25.8 | 176 to 178 | activity fold higher than artemisinin [2]: 2 fold |
| Cc1cc(NCCCCNc2ccnc3cc(Cl)ccc23)nc(N2CCN(C)CC2)n1 [12k, N-(7-Chloro-quinolin-4-yl)-N′-[6-methyl-2-(4-methyl-piperazin-1-yl)-pyrimidin-4-yl]-butane-1,4-diamine] | 21 | (>2857) | 34 | 22 | (>2727) | > 60 | 27.2 | 183 to 185 | – |
| Cc1cc(NCCCCCCNc2ccnc3cc(Cl)ccc23)nc(N2CCN(C)CC2)n1 [12l, N-(7-Chloro-quinolin-4-yl)-N′-[6-methyl-2-(4-methyl-piperazin-1-yl)-pyrimidin-4-yl]-hexane-1,6-diamine] | 16 | (>637) | 7.4 | 7 | (>1457) | 10.2 | < 6.7 | 152 to 154 | activity fold higher than artemisinin [2]: 2 fold; selectivity index of antimalarial activity [2]: considerably high; toxicity to cell lines (VERO cells): showed toxicity |
| CCN1CCN(c2nc(C)cc(NCCCCNc3ccnc4cc(Cl)ccc34)n2)CC1 [12n, N-(7-Chloro-quinolin-4-yl)-N′-[2-(4-ethyl-piperazin-1-yl)-6-methyl-pyrimidin-4-yl]-butane-1,4-diamine] | 18 | 1772.2 | 10.5 | 19 | 1678.9 | 31.9 | 14.9 | 101 to 103 | – |
| CCN(CC)CCCC(C)Nc1ccnc2cc(Cl)ccc12 (centres unmarked) [CQ, chloroquine] | – | – | – | – | – | – | – | – | 6-OHDA-induced death in primary DA neurons [3]: significantly inhibit; transcriptional activity of other nuclear receptors [4]: unable to induce; Ki (Nurr1 LBD [5]; 500 nM [3H]-CQ): 88 nM; EC50 (Nurr1 LBD [6]; read-out: EC50 Nurr1 LBD-based reporter activity): ~60 µM and ~50 µM; neuroprotective effect in PC12 cells (PC12 cells): neuroprotective effect; MPTP-induced parkinsonian motor abnormalities (MPTP-treated monkeys): protected them from MPTP-induced parkinsonian motor abnormalities; Nurr1 recruitment to NL1 and NL3 sites of the TH promoter [7]: recruited to both NL1 and NL3 sites |
| N[C@@H](Cc1ccc(O)c(O)c1)C(=O)O [L-DOPA] | – | – | – | – | – | – | – | – | rearing activity in Cylinder test (aphakia (ak/ak) mice): dramatically induced rearing activity |
| CCN(CC)CCCC(C)Nc1ccnc2cc(Cl)ccc12 (centres unmarked) [[^3H]-CQ] | – | – | – | – | – | – | – | – | Kd (Nurr1 LBD [5]; radioligand saturation binding, read-out: dissociation constant, saturable binding to Nurr1-LBD): 270 nM |
| O=C(OCC(O)CO)c1ccccc1Nc1ccnc2cc(Cl)ccc12 (centres unmarked) [glafenine] | – | – | – | – | – | – | – | – | screen outcome (Nurr1): hit compounds; luciferase reporter activity, fold activation (full-length Nurr1): approximately 1.6 fold |
| COc1cc(NC(C)CCCN)c2ncccc2c1 (centres unmarked) [primaquine] | – | – | – | – | – | – | – | – | Ki, competition with [3H]-CQ for binding to Nurr1-LBD (Nurr1 LBD [5]; 500 nM [3H]-CQ): unable to compete; transactivation of Nurr1 LBD / Nurr1 transcriptional function (Nurr1 LBD [6]; wide range of concentrations, FIG. 18): couldn't enhance the Nurr1 transcriptional function |
